Experimental findings from ChEMBL document CHEMBL3880404, “Aminopyrimidines useful as kinase inhibitors” (2007) are described below.

Test [1] addresses T1, Tyrosine-protein kinase JAK3 (Homo sapiens, UniProt P52333).
T1 sequence (P52333 whole entry): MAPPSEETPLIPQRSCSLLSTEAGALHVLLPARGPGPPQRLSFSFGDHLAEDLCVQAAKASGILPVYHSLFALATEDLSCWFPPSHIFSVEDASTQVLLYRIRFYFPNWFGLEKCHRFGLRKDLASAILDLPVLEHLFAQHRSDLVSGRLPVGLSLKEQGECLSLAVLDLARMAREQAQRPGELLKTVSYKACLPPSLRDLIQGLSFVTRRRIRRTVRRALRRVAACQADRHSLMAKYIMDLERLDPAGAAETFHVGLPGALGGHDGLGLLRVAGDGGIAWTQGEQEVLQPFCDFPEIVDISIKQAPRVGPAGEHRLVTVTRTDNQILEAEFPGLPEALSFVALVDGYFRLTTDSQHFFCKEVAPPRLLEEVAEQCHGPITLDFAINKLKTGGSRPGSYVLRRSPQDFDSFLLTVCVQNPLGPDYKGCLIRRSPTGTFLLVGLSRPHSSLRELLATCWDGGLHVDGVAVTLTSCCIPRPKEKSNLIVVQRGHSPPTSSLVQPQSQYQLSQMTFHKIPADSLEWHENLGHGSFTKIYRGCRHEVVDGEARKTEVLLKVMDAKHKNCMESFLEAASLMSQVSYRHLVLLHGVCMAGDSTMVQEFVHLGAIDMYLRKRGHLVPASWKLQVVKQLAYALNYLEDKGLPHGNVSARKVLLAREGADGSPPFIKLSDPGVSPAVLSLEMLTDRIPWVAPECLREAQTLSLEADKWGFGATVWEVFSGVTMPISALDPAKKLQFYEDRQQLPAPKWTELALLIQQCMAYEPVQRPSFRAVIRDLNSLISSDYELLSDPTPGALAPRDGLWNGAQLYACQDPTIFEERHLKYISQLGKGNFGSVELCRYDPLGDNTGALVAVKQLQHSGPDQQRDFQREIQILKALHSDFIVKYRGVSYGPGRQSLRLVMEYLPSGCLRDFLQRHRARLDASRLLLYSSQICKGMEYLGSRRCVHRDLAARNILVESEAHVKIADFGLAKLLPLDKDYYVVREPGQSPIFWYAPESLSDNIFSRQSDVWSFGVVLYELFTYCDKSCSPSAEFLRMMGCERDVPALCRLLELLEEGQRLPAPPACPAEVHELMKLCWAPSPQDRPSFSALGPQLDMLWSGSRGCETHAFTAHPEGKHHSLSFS
In words: Inhibition of JAK3 (unknown origin) using poly(Glu)4Tyr substrate and [gamma-33P]-ATP incubated for 20 mins by Top-count assay.

The target of a further test is Aurora kinase B (Homo sapiens, UniProt Q96GD4). Kind of test: Inhibition of Aurora-1 (unknown origin) incubated for 10 mins using Kemptide substrate and [gamma-33P]-ATP measured after 3 hrs by liquid scintillation counting based radiometric assay.
Sequence of Aurora kinase B (Q96GD4 whole entry): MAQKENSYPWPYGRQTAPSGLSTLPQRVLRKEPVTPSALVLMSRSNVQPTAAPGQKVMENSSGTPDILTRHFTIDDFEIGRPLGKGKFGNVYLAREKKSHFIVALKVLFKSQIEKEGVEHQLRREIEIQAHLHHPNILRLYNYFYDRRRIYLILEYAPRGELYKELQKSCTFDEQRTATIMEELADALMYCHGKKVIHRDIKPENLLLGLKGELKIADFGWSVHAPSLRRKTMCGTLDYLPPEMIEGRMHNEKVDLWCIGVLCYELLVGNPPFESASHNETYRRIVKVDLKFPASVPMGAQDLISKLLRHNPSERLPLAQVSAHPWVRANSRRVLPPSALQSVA
Test [2] deals with Tyrosine-protein kinase JAK2 (Homo sapiens, UniProt O60674). Kind of test: Inhibition of JAK2 (unknown origin) using poly(Glu)4Tyr substrate and [gamma-33P]-ATP incubated for 20 mins by Top-count assay.
Sequence of Tyrosine-protein kinase JAK2 (O60674 whole entry): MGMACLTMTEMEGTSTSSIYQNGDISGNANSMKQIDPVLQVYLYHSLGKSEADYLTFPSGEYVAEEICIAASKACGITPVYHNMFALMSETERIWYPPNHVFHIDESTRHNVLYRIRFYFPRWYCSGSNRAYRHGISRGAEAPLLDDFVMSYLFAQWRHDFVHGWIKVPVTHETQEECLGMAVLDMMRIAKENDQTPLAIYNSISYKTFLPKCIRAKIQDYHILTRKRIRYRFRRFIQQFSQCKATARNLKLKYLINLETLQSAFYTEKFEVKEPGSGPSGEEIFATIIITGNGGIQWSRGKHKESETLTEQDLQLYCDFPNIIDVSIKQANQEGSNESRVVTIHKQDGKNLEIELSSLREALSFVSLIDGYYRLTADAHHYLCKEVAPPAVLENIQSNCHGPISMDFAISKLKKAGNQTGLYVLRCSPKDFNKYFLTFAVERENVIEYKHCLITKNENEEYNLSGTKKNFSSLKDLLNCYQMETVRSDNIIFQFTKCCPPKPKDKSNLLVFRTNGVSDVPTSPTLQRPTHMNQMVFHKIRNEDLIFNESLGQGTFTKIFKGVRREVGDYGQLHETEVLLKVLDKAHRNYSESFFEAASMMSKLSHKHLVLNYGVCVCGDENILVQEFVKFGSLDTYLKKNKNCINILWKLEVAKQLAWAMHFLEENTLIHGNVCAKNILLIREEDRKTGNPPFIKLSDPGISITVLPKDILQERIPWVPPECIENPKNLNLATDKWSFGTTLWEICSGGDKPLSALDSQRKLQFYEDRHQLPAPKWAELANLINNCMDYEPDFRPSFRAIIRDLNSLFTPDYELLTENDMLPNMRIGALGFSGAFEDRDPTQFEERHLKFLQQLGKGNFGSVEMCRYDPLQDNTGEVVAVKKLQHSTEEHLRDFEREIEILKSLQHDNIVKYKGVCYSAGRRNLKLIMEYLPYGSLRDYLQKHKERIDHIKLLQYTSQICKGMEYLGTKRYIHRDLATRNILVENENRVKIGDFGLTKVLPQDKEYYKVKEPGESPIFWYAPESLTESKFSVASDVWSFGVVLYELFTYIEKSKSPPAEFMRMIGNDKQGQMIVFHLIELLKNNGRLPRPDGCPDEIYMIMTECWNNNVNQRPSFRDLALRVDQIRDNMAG
The next test has as its target T2, Aurora kinase A (Homo sapiens, UniProt O14965).
T2 sequence (O14965 whole entry): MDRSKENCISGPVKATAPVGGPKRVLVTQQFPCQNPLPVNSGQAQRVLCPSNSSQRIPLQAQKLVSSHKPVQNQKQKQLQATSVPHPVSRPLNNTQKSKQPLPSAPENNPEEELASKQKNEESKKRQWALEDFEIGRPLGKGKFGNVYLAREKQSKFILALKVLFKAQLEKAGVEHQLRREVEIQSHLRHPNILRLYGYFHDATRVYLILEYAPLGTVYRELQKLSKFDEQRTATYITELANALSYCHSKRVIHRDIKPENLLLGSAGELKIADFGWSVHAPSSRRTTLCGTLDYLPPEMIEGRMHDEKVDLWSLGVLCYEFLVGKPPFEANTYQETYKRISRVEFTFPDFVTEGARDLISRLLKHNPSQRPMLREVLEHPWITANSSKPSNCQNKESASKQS
Kind of test: Inhibition of Aurora-2 (unknown origin) pre-incubated with substrate for 10 mins before enzyme addition and measured after 10 mins post enzyme addition using Kemptide substrate by pyruvate kinase and LDH based standard coupled enzyme assay.

What is called Ki is the equilibrium dissociation constant of an inhibitor or competing ligand from its target. A higher Ki goes with a looser hold on the target. On to `Cc1cc(Nc2cc(N3CCC3)nc(O[C@H]3CCN(C(=O)OC(C)(C)C)C3)n2)[nH]n1`, for which the inhibitory constant (Ki) (in test [1]; on Aurora kinase B) was under 500 nM throughout.

As for `Cc1cc(Nc2cc(N3CC(F)(C4CC4)C3)nc(O[C@H]3CCN(C(=O)OC(C)(C)C)C3)n2)[nH]n1`, the Ki was under 100 nM in test [2], under 500 nM in test [1], under 10 nM at Aurora kinase A and under 500 nM at Aurora kinase B.

Regarding `Cc1cc(Nc2cc(N3CC(F)(C4CC4)C3)nc(O[C@H]3CCN(C(=O)c4cc(Cl)ccc4F)C3)n2)n[nH]1` [MK-6592], the figures for the Ki (in test [2]; at Aurora kinase A) were under 100 nM and under 10 nM, respectively.
